Consider two molecules from US20060069045A1, “Methods for treating familial dysautonomia” (priority 2004, published 2006).

Type in all cases: cell-based, human
Test [1] concerns IKAP transcript. In words: real-time RT-PCR analysis of IKAP RNA levels (exon 20-containing, exon 20-lacking) in treated cells. The following applies: for level of the wild-type of IKAP transcript: GM04663 cells, 24 h, each agent by itself (5 ug/ml EGCG; 6.25 ug/ml δ-tocotrienol). The method, then: (§1) In order to identify agents that could modulate the level of the wild type IKAP transcript produced in FD-derived cells, either by increasing transcription or modulating splicing, FD-derived fibroblast cells (GM04663) were treated with EGCG. RNA was isolated from GM04663 cells treated for 24 h with varying concentrations of EGCG was subjected to real-time RT-PCR analysis using a pair of primers that recognize both of the hnRNP A2/B1 transcripts. More specifically, FD-derived fibroblast cells, seeded in 96-well plates were treated in triplicate for approximately 24 h unless noted otherwise. After treatment, the cells were washed once with PBS and then lysed in 50 μl Cell-to-cDNA lysis buffer (Ambion) at 75° C. for 12 min. After one freeze-thaw cycle, 4 μl of lysate was used in 20 μl RT-PCR. The Quantitect SYBR Green RT-PCR Kit (Qiagen) was used for real-time RT-PR analysis of the relative quantities of the exon 20-containing transcript (wild-type), the exon 20-lacking transcript (mutant), and exon 34-35 containing transcript that is unaffected by the FD-causing mutation (total), as well as the hnRNP A2/B1 and hnRNP A1 transcripts.
The primers used for these analyses were as follows: for the exon 20-containing transcript, 5′-AGTTGTTCATCATCGAGC-3′ (SEQ ID NO: 3) and 5′-[…]-3′ (SEQ ID NO: 4); for exon 20-lacking transcript, 5′-[…]-3′ (SEQ ID NO: 5) and 5′-[…]-3′ (SEQ ID NO: 6); for exon […] containing transcript, 5′-GAGATCATCCAAGAATCGC-3′ (SEQ ID NO: 7) and 5′-GGTAGCTGAATTCTGCTG-3′ (SEQ ID NO: 8); for hnRNP A2/B1 transcript, 5′-GAGTTGTTTCTCGAGCAG-3′ (SEQ ID NO: 9) and 5′-TGATCTTTTGCTTGCAGG-3′ (SEQ ID NO: 10); and for hnRNP A1 transcript, 5′-[…]-3′ (SEQ ID NO: 11) and 5′-[…]-3′ (SEQ ID NO: 12). Primers were used at a concentration of 0.5 μM. An ABI PRISM 7000 Sequence Detection System (Applied Biosystems), programmed as follows, was used to perform the real-time RT-PCR and analysis: 50° C.×30 min and 95° C.×15 min for one cycle, followed by 40 cycles of 94° C.×15 s, 57-60° C.×30 s, and 72° C.×30 s. To present relative amounts of PCR product obtained, results are expressed as changes in the threshold cycle (ΔCT) compared to untreated cells. The threshold cycle refers to the PCR cycle at which the fluorescence of the PCR is increased to a calculated level above background. A change of 1.0 in CT, assuming 100% PCR efficiency, would reflect a twofold change in the starting amount of the RNA template that was amplified.
To control for the amount of RNA present in the samples, RT-PCR amplification of ribosomal 18S RNA was performed on all cell lysates. […] For this analysis, TaqMan Ribosomal RNA Control Reagents were used with the TaqMan EZ RT-PCR Kit (Applied Biosystems) as per the manufacturer's protocol.
(§2) To determine the effect of EGCG on the cellular level of the exon 20-containing (wild type) IKAP mRNA, FD-derived and normal fibroblasts were treated with 50 μg/ml EGCG for varying lengths of time. The levels of hnRNP A2/B1, hnRNP A1, IKAP exon 20-containing (wild type), IKAP exon 20-lacking (mutant), and IKAP exon 34-35-containing (total) transcripts were determined (FIG. 3).

A further test has as its system IKAP. Put plainly: Western blot analysis of full-length IKAP in treated FD-derived cells. The following applies: FD-derived GM00850 and GM04663 fibroblasts, 24 h, 50 μg/ml EGCG. The source says:
(§3) The GM00850 and GM04663 cell lines, homozygous for the IVS20^+6T→C FD-causing mutation, and the GM02912 cell line, derived from an unaffected individual, were obtained from the NIGMS Human Genetic Mutant Cell Repository. LA1-55n cells were provided by Dr. Robert A. Ross. EGCG and δ-tocotrienol were purchased from Calbiochem. A monoclonal antibody generated against a peptide encoded by exons 23-28 of IKBKAP was purchased from BD Biosciences. The 4B10 and DP3B3 monoclonal antibodies, which recognize hnRNP A1 and hnRNP A2/B1, respectively, were provided by Dr. Gideon Dreyfuss.
(§4) GM00850 and GM04663 cells treated for 24 h with 50 μg/ml of EGCG were washed twice with PBS and lysed in 0.5 M Tris-HCl, pH 6.8, containing 1.4% SDS. Western blot analysis was performed essentially as described by Rubin et al. (Proc. Natl. Acad. Sci. USA 82: 6637-41 (1985)). Equal amounts of protein fractionated on a 7% NuPAGE Tris-Acetate Gel (Invitrogen) were blotted onto nitrocellulose (Bio-Rad) and probed overnight with a monoclonal antibody (BD Biosciences) to IKAP that is directed against the carboxyl end (exons 23-28) of IKAP and therefore recognizes the full-length protein. The blot was then washed and probed with a goat anti-mouse antibody conjugated to alkaline phosphatase (Promega), followed by detection with Western Blue Substrate solution (Promega). […]

A further test has as its system hnRNP A2/B1 transcript. Put plainly: real-time RT-PCR analysis of hnRNP A2/B1 transcripts in EGCG-treated cells.
From the text: as §3
as §1, with “transcripts. […]” for “transcripts. More specifically, FD-derived fibroblast cells, seeded in 96-well plates were treated in triplicate for approximately 24 h unless noted otherwise. After treatment, the cells were washed once with PBS and then lysed in 50 μl Cell-to-cDNA lysis buffer (Ambion) at 75° C. for 12 min. After one freeze-thaw cycle, 4 μl of lysate was used in 20 μl RT-PCR.”, “transcripts. […]” for “transcripts.”
In general terms: Real-time PCR tracks product formation cycle by cycle.

For a further test, the system named is hnRNP A1. In words: Western blot analysis of hnRNP A1 in EGCG-treated cells. The conditions noted are these: GM00850 and GM04663 cells, 24 h, 50 μg/ml EGCG.
From the text: as §3, §4
For orientation: Immunoblotting shows a protein as a band on a membrane.

Test [2] deals with IKAP transcript. In words: RT-PCR with primers in exons 19 and 23, agarose gel, of wild-type and mutant IKAP transcripts. The following applies: 24 h, 50 μg/ml EGCG. The method, then:
The effect of EGCG treatment was further monitored by RT-PCR analysis using primers located in exons 19 and 23 capable of amplifying both the normal and mutant forms of the IKAP transcript. 4 μl of cell lysates produced as described above was used in 20 μl RT-PCR using the One Step RT-PCR Kit (Qiagen) with the following primers which recognize sequences in exons 19 and 23 of IKBKAP: 5′-GCAGCAATCATGTGTCCCA-3′ (SEQ ID NO: 1) and 5′-TAGCATCGCAGACAAGGTC-3′ (SEQ ID NO: 2). The RT-PCR was carried out as follows: one cycle of 50° C.×30 min and 95° C.×15 min, followed by 41 cycles of 94° C.×20 s, 60° C.×30 s and 72° C.×15 s, and then a final extension of 72° C.×2 min. PCR products were analyzed on a 2% agarose gel.

Another test relates to hnRNP A1 transcript. Put plainly: real-time RT-PCR analysis of hnRNP A1 transcript in EGCG-treated cells. The following applies: FD-derived and normal fibroblasts, 50 μg/ml EGCG, varying lengths of time. The method, then:
as §1, with “noted otherwise. […] The Quantitect” for “noted otherwise. After treatment, the cells were washed once with PBS and then lysed in 50 μl Cell-to-cDNA lysis buffer (Ambion) at 75° C. for 12 min. After one freeze-thaw cycle, 4 μl of lysate was used in 20 μl RT-PCR. The Quantitect”, “A1 transcripts. […]” for “A1 transcripts.”
as §2

Another test has as its system hnRNP A2/B1. In words: Western blot analysis of hnRNP A2/B1 in EGCG-treated cells. The following applies: GM00850 and GM04663 cells, 24 h, 50 μg/ml EGCG.
From the text: as §3, §4

As to `CC(C)=CCC/C(C)=C/CC/C(C)=C/CC[C@]1(C)CCc2cc(O)cc(C)c2O1` [8-tocotrienol, δ-tocotrienol, reference compound], the “level of the wild-type of IKAP transcript” value in the test with IKAP transcript [1] is reported as “did not result in a significant elevation”.

As for `O=C(O[C@@H]1Cc2c(O)cc(O)cc2O[C@@H]1c1cc(O)c(O)c(O)c1)c1cc(O)c(O)c(O)c1` [EGCG, epigallocatechin gallate], in the test with IKAP, the “amount of IKAP (full-length protein, Western blot)” value is on record as “clear increase”. In the test on IKAP transcript [1] (50 μg/ml EGCG, varying lengths of time), the “level of the exon 20-lacking transcript” value is “not affected”. Besides, the “exon 20-containing IKAP transcript” value is listed as “elevated” with IKAP transcript [1] (FD-derived cells, 50 μg/ml EGCG, varying lengths of time) and “failed to exhibit an increase” in the test with IKAP transcript [1] (normal cells (GM02912), 50 μg/ml EGCG, varying lengths of time). The “level of the wild-type of IKAP transcript” value in the test on IKAP transcript [1] is given as “did not result in a significant elevation”. Also, the “level of the hnRNP A2/B1 transcript” value is listed as “clear concentration-dependent decrease” in the test with hnRNP A2/B1 transcript (FD-derived GM04663 cells, 24 h, varying concentrations of EGCG); “time-dependent reduction” with hnRNP A2/B1 transcript (FD-derived and normal fibroblasts, 50 μg/ml EGCG, varying lengths of time). Further, in the test on hnRNP A1, the “hnRNP A1 levels (Western blot)” value was “unaffected”. For the same molecule, the “exon 20-containing transcript (RT-PCR, exons 19-23, gel)” value with IKAP transcript [2] (FD-derived cells) was “clear enhanced presence”; with IKAP transcript [2] (normal cells) it was “no effect”. The “level of the hnRNP A1 transcript” value in the test with hnRNP A1 transcript was “no effect”. Besides, the “level of hnRNP A2/B1 (Western blot)” value in the test with hnRNP A2/B1 is listed as “suppress the level”.
